Assay results: patent EP4194453A1, “PYRAZINE COMPOUNDS FOR THE CONTROL OF INVERTEBRATE PESTS” (BASF SE, priority 2021, dated 2023)

How the values were obtained:
Assay type in all cases: in vivo
[1] = tested on: Diamond back moth (Plutella xylostella); assay: Diamond back moth leaf-dip test on cabbage leaves; conditions: 3rd instar larvae, 72 hours after treatment, in comparison with untreated controls
Experimental: The active compound was dissolved at the desired concentration in a mixture of 1:1 (vol:vol) distilled water: acetone. Surfactant (Kinetic HV) was added at a rate of 0.01% (vol/vol). The test solution was prepared on the day of use.
Leaves of cabbage were dipped in test solution and air-dried. Treated leaves were placed in petri dishes lined with moist filter paper and inoculated with ten 3rd instar larvae. Mortality was recorded 72 hours after treatment. Feeding damages were also recorded using a scale of 0-100%.

[2] = tested on: Tobacco budworm (Heliothis virescens); assay: Tobacco budworm insect diet test in microtiter plates; conditions: 120 h, egg and larval mortality, 5 days, in comparison with untreated controls
Experimental: For evaluating control of tobacco budworm (Heliothis virescens) the test unit consisted of 96-well-microtiter plates containing an insect diet and 15-25 H. virescens eggs.
The compounds were formulated using a solution containing 75% v/v water and 25% v/v DMSO. Different concentrations of formulated compounds were sprayed onto the insect diet at 10 µl using a custom-built micro atomizer, at two replications.
After application, microtiter plates were incubated at about 28 ± 1°C and about 80 ± 5 % relative humidity for 5 days. Egg and larval mortality was then visually assessed.

[3] = tested on: Boll weevil (Anthonomus grandis); assay: Boll weevil insect diet test in microtiter plates; conditions: 120 h, egg and larval mortality, 5 days, in comparison with untreated controls
Experimental: For evaluating control of boll weevil (Anthonomus grandis) the test unit consisted of 96-well-microtiter plates containing an insect diet and 5-10 A. grandis eggs.
The compounds were formulated using a solution containing 75% v/v water and 25% v/v DMSO. Different concentrations of formulated compounds were sprayed onto the insect diet at 5µl, using a custom-built micro atomizer, at two replications.
After application, microtiter plates were incubated at about 25 ± 1°C and about 75 ± 5 % relative humidity for 5 days. Egg and larval mortality was then visually assessed.

[4] = tested on: Southern armyworm (Spodoptera eridania), 2nd instar larvae; assay: Southern armyworm foliar spray test on lima bean plants; conditions: 96 h, 4 days after treatment, in comparison with untreated controls
Experimental: The active compounds were formulated by a Tecan liquid handler in 100% cyclohexanone as a 10,000 ppm solution supplied in tubes. The 10,000 ppm solution was serially diluted in 100% cyclohexanone to make interim solutions. These served as stock solutions for which final dilutions were made by the Tecan in 50% acetone:50% water (v/v) into 10 or 20ml glass vials. A nonionic surfactant (Kinetic®) was included in the solution at a volume of 0.01% (v/v). The vials were then inserted into an automated electrostatic sprayer equipped with an atomizing nozzle for application to plants/insects. Lima bean plants (variety Sieva) were grown 2 plants to a pot and selected for treatment at the 1st true leaf stage. Test solutions were sprayed onto the foliage by an auto-mated electrostatic plant sprayer equipped with an atomizing spray nozzle. The plants were dried in the sprayer fume hood and then removed from the sprayer. Each pot was placed into perforated plastic bags with a zip closure. Ten to 11 armyworm larvae were placed into the bag and the bags zipped closed. Test plants were maintained in a growth room at about 25°C and about 20-40% relative humidity for 4 days, avoiding direct exposure to fluorescent light (14:10 light:dark photoperiod) to prevent trapping of heat inside the bags. Mortality and reduced feeding were assessed 4 days after treatment, compared to untreated control plants.

[5] = tested on: Green Peach Aphid (Myzus persicae); assay: Green peach aphid systemic test, artificial diet in microtiter plates; conditions: 72 h, adult aphids, 3 days, in comparison with untreated controls
From the text: For evaluating control of green peach aphid (Myzus persicae) through systemic means the test unit consisted of 96-well-microtiter plates containing liquid artificial diet under an artificial mem brane.
The compounds were formulated using a solution containing 75% v/v water and 25% v/v DMSO. Different concentrations of formulated compounds were pipetted into the aphid diet, using a custom built pipetter, at two replications.
After application, 5-8 adult aphids were placed on the artificial membrane inside the microtiter plate wells. The aphids were then allowed to suck on the treated aphid diet and incubated at about 23 ± 1°C and about 50 ± 5 % relative humidity for 3 days. Aphid mortality and fecundity was then visually assessed.

[6] = tested on: Orchid thrips (Dichromothrips corbetti); assay: Orchid thrips floral-immersion test; conditions: adult thrips, 72 hours after treatment, in comparison with untreated controls
Experimental: Dichromothrips corbetti adults used for bioassay were obtained from a colony maintained continuously under laboratory conditions. For testing purposes, the test compound is diluted in a 1:1 mixture of acetone:water (vol:vol), plus Kinetic HV at a rate of 0.01% v/v.
Thrips potency of each compound was evaluated by using a floral-immersion technique. All petals of individual, intact orchid flowers were dipped into treatment solution and allowed to dry in Petri dishes. Treated petals were placed into individual re-sealable plastic along with about 20 adult thrips. All test arenas were held under continuous light and a temperature of about 28°C for duration of the assay. After 3 days, the numbers of live thrips were counted on each petal. The percent mortality was recorded 72 hours after treatment.

CCN(C)C(=O)c1nc(-c2nccnc2C(C)NC(=O)c2cc(C(F)(F)F)cc(C(F)(F)F)c2)no1 (stereo not drawn) [I-2, 3-[3-[1-[[3,5-bis(trifluoromethyl)benzoyl]amino]ethyl]pyrazin-2-yl]-N-ethyl-N-methyl-1,2,4-oxadiazole-5-carboxamide]
≥ 75%: mortality at 300 ppm [1] | mortality at 2500 ppm [2] | mortality at 2500 ppm [3]

CNC(=O)c1nc(-c2nccnc2C(C)N(CC2CC2)C(=O)c2cc(C(F)(F)F)cc(C(F)(F)F)c2)no1 (stereo not drawn) [I-4, 3-[3-[1-[[3,5-bis(trifluoromethyl)benzoyl]-(cyclopropylmethyl)amino]ethyl]pyrazin-2-yl]-N-methyl-1,2,4-oxadiazole-5-carboxamide]
≥ 75%: mortality at 2500 ppm [2] | mortality at 2500 ppm [3]

Cc1nc(-c2nccnc2C(C)NC(=O)c2cc(C(F)(F)F)cc(C(F)(F)F)c2)no1 (stereo not drawn) [I-1, N-[1-[3-(5-methyl-1,2,4-oxadiazol-3-yl)pyrazin-2-yl]ethyl]-3,5-bis(trifluoromethyl)benzamide]
≥ 75%: mortality at 300 ppm [1] | mortality at 2500 ppm [2] | mortality at 2500 ppm [3] | mortality at 300 ppm [4] | mortality at 2500 ppm [5]

Cc1nc(-c2nccnc2C(C)N(CC2CC2)C(=O)c2cc(C(F)(F)F)cc(C(F)(F)F)c2)no1 (stereo not drawn) [I-3, N-(cyclopropylmethyl)-N-[1-[3-(5-methyl-1,2,4-oxadiazol-3-yl)pyrazin-2-yl]ethyl]-3,5-bis(trifluoromethyl)benzamide]
≥ 75%: mortality at 300 ppm [6] | mortality at 300 ppm [1] | mortality at 2500 ppm [3] | mortality at 300 ppm [4] | mortality at 2500 ppm [5]
